Experimental data published in PubChem BioAssay AID1919001 (Molecular Pharmacology Branch, DTP, NCI, 2023).
“And” between values parts separate entries of the source, which are not always exact repeats. Equal entries are not always repeated.

Tested on: 699152-130-R-J1-PDC complex spheroid growth
Assay: Anticancer human tumor 699152-130-R-J1-PDC patient-derived pancreatic carcinoma cell line growth inhibition [AhR]
Conditions: for viability, T/C: stronger effect = lower value
In short: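 Spheroids combined tumor cells with HUVEC endothelial cells and human MSCs as stroma. AhR antagonists were paired with standard or investigational drugs, each dosed in half-log steps down from near clinical Cmax, or from 10 microM where Cmax was unknown.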

[1] = curve of first compound, second compound 0.1 µM
[2] = curve of first compound, second compound 0.316 µM
[3] = curve of first compound, second compound 1 µM
[4] = curve of first compound, second compound 3.16 µM
[5] = curve of first compound, second compound 10 µM
[6] = second compound 0.1 µM, first compound 0.0316 µM
[7] = second compound 0.1 µM, first compound 0.1 µM
[8] = second compound 0.1 µM, first compound 0.316 µM
[9] = second compound 0.1 µM, first compound 1 µM
[10] = second compound 0.316 µM, first compound 0.0316 µM
[11] = second compound 0.316 µM, first compound 0.1 µM
[12] = second compound 0.316 µM, first compound 0.316 µM
[13] = second compound 0.316 µM, first compound 1 µM
[14] = second compound 1 µM, first compound 0.0316 µM
[15] = second compound 1 µM, first compound 0.1 µM
[16] = second compound 1 µM, first compound 0.316 µM
[17] = second compound 1 µM, first compound 1 µM
[18] = second compound 3.16 µM, first compound 0.0316 µM
[19] = second compound 3.16 µM, first compound 0.1 µM
[20] = second compound 3.16 µM, first compound 0.316 µM
[21] = second compound 3.16 µM, first compound 1 µM
[22] = second compound 10 µM, first compound 0.0316 µM
[23] = second compound 10 µM, first compound 0.1 µM
[24] = second compound 10 µM, first compound 0.316 µM
[25] = second compound 10 µM, first compound 1 µM
[26] = second compound 0.1 µM, first compound 0.00316 µM
[27] = second compound 0.1 µM, first compound 0.01 µM
[28] = second compound 0.316 µM, first compound 0.00316 µM
[29] = second compound 0.316 µM, first compound 0.01 µM
[30] = second compound 1 µM, first compound 0.00316 µM
[31] = second compound 1 µM, first compound 0.01 µM
[32] = second compound 3.16 µM, first compound 0.00316 µM
[33] = second compound 3.16 µM, first compound 0.01 µM
[34] = second compound 10 µM, first compound 0.00316 µM
[35] = second compound 10 µM, first compound 0.01 µM
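Note: compound exposure lasted 7 days after spheroids had grown for 3 days.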

CC(C)c1c(-c2ccccc2)nc2c(C#N)c[nH]n2c1=O + CC(CO)NC(=O)c1cc(-c2ccc(Cl)cc2)nn(-c2cnn(C)c2)c1=O
IC50 [1]: > 10000 nM
IC50 [2]: > 10000 nM
IC50 [3]: > 10000 nM
IC50 [4]: > 10000 nM
IC50 [5]: > 10000 nM
viability, T/C [6]: 97%
viability, T/C [7]: 97.8%
viability, T/C [8]: 109%
viability, T/C [9]: 100%
viability, T/C (second compound 0.1 µM, first compound 3.16 µM): 94.9%
viability, T/C (second compound 0.1 µM, first compound 10 µM): 95.5%
viability, T/C [10]: 93.6%
viability, T/C [11]: 98.7%
viability, T/C [12]: 86.4%
viability, T/C [13]: 87.9%
viability, T/C (second compound 0.316 µM, first compound 3.16 µM): 93.3%
viability, T/C (second compound 0.316 µM, first compound 10 µM): 86.6%
viability, T/C [14]: 99.7%
viability, T/C [15]: 104%
viability, T/C [16]: 105%
viability, T/C [17]: 97.3%
viability, T/C (second compound 1 µM, first compound 3.16 µM): 85.5%
viability, T/C (second compound 1 µM, first compound 10 µM): 86.8%
viability, T/C [18]: 92.4%
viability, T/C [19]: 90.3%
viability, T/C [20]: 94.8%
viability, T/C [21]: 95.4%
viability, T/C (second compound 3.16 µM, first compound 3.16 µM): 83.5%
viability, T/C (second compound 3.16 µM, first compound 10 µM): 79.5%
viability, T/C [22]: 95.6%
viability, T/C [23]: 100%
viability, T/C [24]: 82.1%
viability, T/C [25]: 82.7%
viability, T/C (second compound 10 µM, first compound 3.16 µM): 85%
viability, T/C (second compound 10 µM, first compound 10 µM): 79.8%

Nc1ncn(C2CC(O)C(CO)O2)c(=O)n1 (configuration not stated) + CC(CO)NC(=O)c1cc(-c2ccc(Cl)cc2)nn(-c2cnn(C)c2)c1=O
IC50 [1]: > 1000 nM
IC50 [2]: > 1000 nM
IC50 [3]: > 1000 nM
IC50 [4]: > 1000 nM
IC50 [5]: > 1000 nM
viability, T/C [26]: 90.2%
viability, T/C [27]: 100%
viability, T/C [6]: 97%
viability, T/C [7]: 102%
viability, T/C [8]: 96.9%
viability, T/C [9]: 93.3%
viability, T/C [28]: 89.5%
viability, T/C [29]: 100%
viability, T/C [10]: 86.7%
viability, T/C [11]: 87.2%
viability, T/C [12]: 87.8%
viability, T/C [13]: 72.2%
viability, T/C [30]: 112%
viability, T/C [31]: 103%
viability, T/C [14]: 107%
viability, T/C [15]: 87.7%
viability, T/C [16]: 77.7%
viability, T/C [17]: 82.3%
viability, T/C [32]: 75.4%
viability, T/C [33]: 87.6%
viability, T/C [18]: 82.2%
viability, T/C [19]: 82.1%
viability, T/C [20]: 81%
viability, T/C [21]: 70%
viability, T/C [34]: 85.8%
viability, T/C [35]: 85.3%
viability, T/C [22]: 79.9%
viability, T/C [23]: 70%
viability, T/C [24]: 66.6%
viability, T/C [25]: 77.1%

Nc1ncn(C2CC(O)C(CO)O2)c(=O)n1 (configuration not stated)
viability, T/C (compound 0.00316 µM): 93.4% and 101% and 95.4%
viability, T/C (compound 0.01 µM): 104% and 93.1% and 106%
viability, T/C (compound 0.0316 µM): 93.1% and 93% and 94.8%
viability, T/C (compound 0.1 µM): 91% and 96.5% and 87.2%
viability, T/C (compound 0.316 µM): 96.5% and 84.4% and 102%
viability, T/C (compound 1 µM): 92.9% and 87.3% and 89%
IC50 (curve of compound): > 1000 nM

Cn1ncnc1C1c2n[nH]c(=O)c3cc(F)cc(c23)NC1c1ccc(F)cc1 (configuration not stated) + Cc1ccccc1N=Nc1ccc(NC(=O)c2ccnn2C)c(C)c1
IC50 [1]: > 100 nM
IC50 [2]: > 100 nM
IC50 [3]: > 100 nM
IC50 [4]: > 100 nM
IC50 [5]: > 100 nM
viability, T/C (second compound 0.1 µM, first compound 0.000316 µM): 83.7%
viability, T/C (second compound 0.1 µM, first compound 0.001 µM): 101%
viability, T/C [26]: 101%
viability, T/C [27]: 87%
viability, T/C [6]: 99.2%
viability, T/C [7]: 100%
viability, T/C (second compound 0.316 µM, first compound 0.000316 µM): 102%
viability, T/C (second compound 0.316 µM, first compound 0.001 µM): 96.5%
viability, T/C [28]: 97.8%
viability, T/C [29]: 88.8%
viability, T/C [10]: 92.4%
viability, T/C [11]: 80.1%
viability, T/C (second compound 1 µM, first compound 0.000316 µM): 107%
viability, T/C (second compound 1 µM, first compound 0.001 µM): 87%
viability, T/C [30]: 94%
viability, T/C [31]: 98.4%
viability, T/C [14]: 95.5%
viability, T/C [15]: 83.2%
viability, T/C (second compound 3.16 µM, first compound 0.000316 µM): 97.5%
viability, T/C (second compound 3.16 µM, first compound 0.001 µM): 117%
viability, T/C [32]: 112%
viability, T/C [33]: 100%
viability, T/C [18]: 90.5%
viability, T/C [19]: 99%
viability, T/C (second compound 10 µM, first compound 0.000316 µM): 113%
viability, T/C (second compound 10 µM, first compound 0.001 µM): 112%
viability, T/C [34]: 118%
viability, T/C [35]: 122%
viability, T/C [22]: 108%
viability, T/C [23]: 105%
